How the values were obtained:
[1] = Properties of the McrBC cleavage reaction (pH, ratio of components); assay type: biochemical
Text: (a) pH optimum: Activity is detectable when the pH of the reaction is lowered to about 5.8.
Higher or lower ratios reduce cleavage activity.

[2] = test system: DNA from bacteriophages T4αgt βgt dam^h dam1 and T6αgt; assay: McrBC cleavage of 5-hydroxymethylcytosine-containing phage DNA; assay type: biochemical, bacteriophages T4 and T6; conditions: hmC DNA first treated with EcoRI or SspI, then McrBC with GTP
Description: (§1) Accordingly, the DNA Escherichia coli W3110(ppvuIIM1.9), which is modified in the sequence CAGCTG at the N^4 position of the central cytosine to generate the sequence CAGm4CTG, was treated with. McrBC in the presence of GTP following embedding of the cultured cells in agarose and subsequent lysis in situ to release the DNA, by standard procedures for in situ digestion. DNA carrying this modification was cleaved into many fragments of sizes smaller than 50 kb. From this evidence it was concluded that McrBC recognizes sequences containing N^4 C. In addition, DNA from bacteriophages T4αgt βgt dam^h dam1 and T6αgt, containing 5-hydroxymethylcytosine in place of cytosine and devoid of N^6 -methyladenine, was first treated with EcoRI or SspI and then treated with McrBC in the presence of GTP. Both of these DNAs were cleaved to produce many fragments smaller than 700 bp. From this evidence it was concluded that McrBC recognizes sequences containing hm5C as well m5C and N^4 -methylcytosine.

[3] = test system: DNA Escherichia coli W3110(ppvuIIM1.9); assay: McrBC digestion of agarose-embedded M.PvuII-modified cellular DNA; assay type: biochemical
Description: as §1

methylated DNA = assay: McrBC cleavage of plasmid and phage DNA modified by methylases; assay type: biochemical
Text: The recognition sequence of the endonuclease of the present invention may be determined by mapping the locations of McrBC cleavage in various DNAs and comparing the DNA sequences of these regions for homology.
McrBC was also found to cleave M.AluI-methylated doublestranded pUC19 linearized at the AflIII site to generate fragments of 2.25 kb, 1.9 kb, 1.75 kb, 1.275 kb, 1.15 kb, 1.05 kb 0.94 kb, 0.25 kb and 0.27 kb, consistent with cleavage near nucleotides 250, 2300, 1350 and 325. McrBC also cleaves the following: M.HaeIII-methylated (GGmCC) pUC19 linearized at the AflIII site to generate fragments of 2.25 kb, 1.8 kb, 1.25 kb, 1.05 kb, 0.94 kb, 0.5 kb, and 0.45 kb, consistent with cleavage near nucleotide 1600, 2500, 350 and 550; M.HhaI-methylated (GmCGC) pBR322 near nucleotides 434-494 and near nucleotides 594-548; M.HhaI-methylated pUC19 linearized at the AflIII site to generate bands of 2.25 kb, 1.9 kb, 1.15 kb, and 0.94 kb, consistent with cleavage near nucleotides 0 or 60, 2350, 1500 and 620; M.MspI-modified (mCCGG) pUC19 linearized at the AflIII site to generate bands of 1.6 kb, 1.5 kb, 1.0 kb and 0.9 kb, consistent with cleavage near nucleotides 1500 and 1600. In addition, McrBC degrades the following: M.SssI modified (mCG) pBR322 and M.SssI modified pUC19 DNA; agarose-embedded cellular DNA of Escherichia coli carrying ppvuIIM1.9, which is M.PvuII modified ([…]).
pBR322 was modified by M.AluI by standard methods, cleaved with ClaI, and resuspended at 0.1 μg/μl. This substrate was recleaved with one of four restriction endonucleases that cleave once in pBR322 (AflIII, NdeI, ScaI, or SspI). These reactions (0.4 μg DNA in each, cleaved in a volume of 20 μl with the appropriate buffer supplied by New England Biolabs) were phenol extracted, precipitated by addition of ethanol in the presence of salt, and resuspended in dH2 O. Half of each reaction (0.2 μg) was digested with McrBC (1 μl each of McrBL and McrC; McrBL was similar to McrBL fraction iii of EXAMPLE III; McrC was similar to McrC fraction ii of EXAMPLE III). Reactions were loaded onto an agarose gel, with size standards (pBR322 digested with BstNI; NEB #301-1) and the sizes of the various fragments determined from a log-linear plot of cm migration (from a Polaroid photograph) versus known size of size standards. Sizes of fragments larger than the largest size standard were estimated by extrapolation and are indicated by "~". Sizes were lane 1, size standard: 1857, 1060, 929, 383, 121 bp; lane 2, AflIII+McrBC: >4 kb (faint, partial digest product), ~2.5, ~2.2, 1.7, 0.7 kb; lane 3, AflIII: ~2.6, ~2.1 (expected sizes 2.449, 1.912); lane 4, NdeI+McrBC: ~ 2.2, ~2.1, 1.8, 0.4 kb; lane 5, NdeI: ~2.5, ~2.2 kb (expected sizes 2.272, 2.089); lane 6, McrBC: ~2.2, 1.7, 0.93, 0.66, 0.48 kb; lane 7, ScaI: ~3.7, 0.54 (expected sizes 3.822, 0.541); lane 8, ScaI+McrBC: ~2.1, ~1.9, 1.1, 0.66, 0.60, 0.54 kb; lane 9, SspI: ~3.7, 0.28 kb (expected sizes 4.146, 0.215); lane 10, SspI+McrBC: ~2.2, 1.35, 0.66, 0.56 kb.
DNA used was pUC19 linearized at the AflIII site, obtained by standard procedures, and then methylated (0.8 μg) in a reaction containing 8 μl 10 X buffer (for M.AluI, M.HhaI, and M.HpaII this was 10XM.FnuDII buffer: 500 mM Tris[Cl] pH 7.5, 100 mM EDTA, 50 mM β-mercaptoethanol;for M.HaeIII, 500 mM Tris [Cl] pH 8.5; 500 mM NaCl, 10 mM dithiothreitol; for M.MspI, 500 mM Tris, pH 7.5, 500 mM NaCl, 50 mM β-mercaptoethanol; for M.SssI, 500 mM Tris Cl, pH 8.0, 500 mM NaCl, 100 mM EDTA), 8 μl S-adenosylmethionine (32 mM in 5 mM H2 SO4, 10% ethanol) and 4 μl methylase (M.AluI, 5 units/μl; M.HaeIII, 5 units/μl; M.HhaI, 25 units/μl; M.HpaII, 1-5 units/μl,M.MspI, 5 units/μl, M.SssI, 2 units/μl) in a total volume of 82 μl. Methylation reactions were incubated 90 minutes at 37° C., then heat-killed by incubation for 15 minutes at 67°-70° C. These substrates were then distributed to 6 series of 7 tubes for McrBC titration. […]

McrBC: DNA endonuclease obtainable from Escherichia coli; components McrBL and McrC, substantially free of McrBS
pH to which the reaction can be lowered with activity detectable [1]: about 5.8
size of fragments produced by cleavage [2]: smaller than 700 bp
size of fragments produced by cleavage ([3]; CAGm4CTG-modified DNA, in the presence of GTP, in situ digestion): smaller than 50 kb
degradation of substrate DNA ([3]; agarose-embedded cellular DNA of Escherichia coli carrying ppvuIIM1.9, M.PvuII modified (GAm4CGTC)): degrades
degradation of substrate DNA (methylated DNA; Dcm-modified (CmCWGG) pBR322, pUC19 or bacteriophage lambda DNA): does not degrade
cleavage of substrate DNA (methylated DNA; M.AluI-methylated pUC19 linearized at the AflIII site): cleave
cleavage of substrate DNA (methylated DNA; M.HaeIII-methylated (GGmCC) pUC19 linearized at the AflIII site): cleaves
cleavage of substrate DNA (methylated DNA; M.HhaI-methylated (GmCGC) pBR322): cleaves
cleavage of substrate DNA (methylated DNA; M.HhaI-methylated pUC19 linearized at the AflIII site): cleaves
degradation of substrate DNA (methylated DNA; M.HpaII-modified (Cm5CGG) pBR322, pUC19 or bacteriophage lambda DNA): does not degrade
cleavage of substrate DNA (methylated DNA; M.MspI-modified (mCCGG) pUC19 linearized at the AflIII site): cleaves
degradation of substrate DNA (methylated DNA; M.SssI modified (mCG) pBR322 and pUC19): degrades
degradation of substrate DNA (methylated DNA; pBR322, pUC19 or bacteriophage lambda modified by both Dcm and M.HpaII): does not degrade
cleavage of substrate DNA (methylated DNA; pBR322 DNA methylated by M.AluI (AGm5CT)): cleave

Reference: US5405760A, “Process for producing recombinant McrBC endonuclease and cleavage of methylated DNA” (New England Biolabs, Inc., priority 1992, dated 1995)
